Measurements taken from BindingDB's records for doi:10.1016/j.bmcl.2007.11.087 (Bristol-Myers Squibb, 2008).

test: Antagonist activity at human CCR3 receptor assessed as inhibition of chemotaxis in eosinophil

IC50 [nM] | SMILES
2.6 | CCc1cc(NC(=O)N[C@H](C)[C@@H](O)CN(C)CCCc2ccc(F)cc2)cc(-c2nnnn2C)c1 [1-(3-ethyl-5-(1-methyl-1H-tetrazol-5-yl)phenyl)-3-((2R,3S)-4-((3-(4-fluorophenyl)propyl)(methyl)amino)-3-hydroxybutan-2-yl)urea]
22 | C[C@@H](NC(=O)Nc1cccc(-c2nnnn2C)c1)[C@@H](O)CN(C)[C@@H](C)[C@@H](O)c1ccccc1 [1-((2R,3S)-3-hydroxy-4-(((1S,2S)-1-hydroxy-1-phenylpropan-2-yl)(methyl)amino)butan-2-yl)-3-(3-(1-methyl-1H-tetrazol-5-yl)phenyl)urea]
0.005 | CCc1cc(NC(=O)N[C@H](C)[C@@H](O)CN(CCCc2ccc(F)cc2)CC2CC2)cc(-c2nnnn2C)c1 [1-((2R,3S)-4-((cyclopropylmethyl)(3-(4-fluorophenyl)propyl)amino)-3-hydroxybutan-2-yl)-3-(3-ethyl-5-(1-methyl-1H-tetrazol-5-yl)phenyl)urea]
0.004 | CCc1cc(NC(=O)N[C@H](C)[C@@H](O)CN(CC)CCCc2ccc(F)cc2)cc(-c2nnnn2C)c1 [1-((2R,3S)-4-(ethyl(3-(4-fluorophenyl)propyl)amino)-3-hydroxybutan-2-yl)-3-(3-ethyl-5-(1-methyl-1H-tetrazol-5-yl)phenyl)urea]
0.038 | C[C@@H](NC(=O)Nc1cccc(-c2nnnn2C)c1)[C@@H](O)CN1CCC[C@@H](Cc2ccc(F)cc2)C1 [1-{(1R,2S)-3-[(S)-3-(4-Fluoro-benzyl)-piperidin-1-yl]-2-hydroxy-1-methyl-propyl}-3-[3-(1-methyl-1H-tetrazol-5-yl)-phenyl]-urea]
